In PubChem BioAssay (NCI):
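Method: 48-hour compound exposure of cells in 96-well plates, five concentrations, linear interpolation of endpoints. GI50 marks 50% less growth. At the TGI there is no net growth.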

What was measured:
Test in all cases: NCI-60 cell line screen, 48 h
[1] = test system: TK-10 renal
[2] = test system: SW-620 colon
[3] = test system: MALME-3M melanoma
[4] = test system: A549 NSCLC
[5] = test system: ACHN renal
[6] = test system: OVCAR-5 ovarian
[7] = test system: SK-OV-3 ovarian
[8] = test system: NCI-H522 lung
[9] = test system: NCI-H23 lung
[10] = test system: MDA-MB-468 breast
[11] = test system: SK-MEL-5 melanoma
[12] = test system: SF-539 CNS
[13] = test system: CAKI-1 renal
[14] = test system: HT29 colon
[15] = test system: SNB-19 CNS
[16] = test system: SN12C renal
[17] = test system: PC-3 prostate
[18] = test system: EKVX NSCLC
[19] = test system: CCRF-CEM leukemia
[20] = test system: NCI-H226 lung
[21] = test system: RXF 393 renal
[22] = test system: A498 renal
[23] = test system: HS 578T breast
[24] = test system: 786-0 renal
[25] = test system: U251 CNS
[26] = test system: MDA-MB-231 breast
[27] = test system: UACC-62 melanoma
[28] = test system: K-562 leukemia
[29] = test system: MCF7 breast
[30] = test system: OVCAR-4 ovarian
[31] = test system: LOX IMVI melanoma
[32] = test system: MDA-MB-435
[33] = test system: RPMI-8226 leukemia
[34] = test system: SK-MEL-2 melanoma
[35] = test system: HCT-116 colon
[36] = test system: COLO 205 colon
[37] = test system: HOP-92 NSCLC
[38] = test system: MOLT-4 leukemia
[39] = test system: UO-31 renal
[40] = test system: OVCAR-8 ovarian
[41] = test system: M14 melanoma
[42] = test system: HL-60(TB) leukemia
[43] = test system: DU-145 prostate
[44] = test system: SR leukemia
[45] = test system: IGROV1 ovarian
[46] = test system: HCC-2998 colon
[47] = test system: SK-MEL-28 melanoma
[48] = test system: SF-268 CNS
[49] = test system: HOP-62 NSCLC
[50] = test system: HCT-15 colon
[51] = test system: BT-549 breast
[52] = test system: SF-295 CNS
[53] = test system: NCI-H460 lung
[54] = test system: SNB-75 CNS
[55] = test system: UACC-257 melanoma
[56] = test system: T-47D breast
[57] = test system: KM12 colon
[58] = test system: OVCAR-3 ovarian

Question: Which results are given for `Cc1nc(Nc2nc(C)c3ccc(OCCN4CCOCC4)cc3n2)[nH]c(=O)c1C`?
Answer: GI50 [1]: 2.99 µM; TGI [1]: 22.4 µM; GI50 [2]: 3.39 µM; TGI [2]: 20.7 µM; GI50 [3]: 2.38 µM; TGI [3]: 9.06 µM; GI50 [4]: 3.37 µM; TGI [4]: 15.4 µM; GI50 [5]: 3.85 µM; TGI [5]: 19.4 µM; GI50 [6]: 4.22 µM; TGI [6]: 27.5 µM; GI50 [7]: 4.67 µM; TGI [7]: 24.8 µM; GI50 [8]: 2.45 µM; TGI [8]: 8.57 µM; GI50 [9]: 2.53 µM; TGI [9]: 5.91 µM; GI50 [10]: 1.72 µM; TGI [10]: 3.8 µM; GI50 [11]: 2.29 µM; TGI [11]: 6.87 µM; GI50 [12]: 2.82 µM; TGI [12]: 8.86 µM; GI50 [13]: 3.66 µM; TGI [13]: 24.2 µM; GI50 [14]: 3.01 µM; TGI [14]: 9.94 µM; GI50 [15]: 4.66 µM; TGI [15]: 24.6 µM; GI50 [16]: 3.46 µM; TGI [16]: 19.5 µM; GI50 [17]: 4.04 µM; TGI [17]: 27 µM; GI50 [18]: 4.15 µM; TGI [18]: 26.7 µM; GI50 [19]: 3.26 µM; TGI [19]: 13.8 µM; GI50 [20]: 2.86 µM; TGI [20]: 11.1 µM; GI50 [21]: 1.95 µM; TGI [21]: 4.47 µM; GI50 [22]: 2.16 µM; TGI [22]: 6.52 µM; GI50 [23]: 3.79 µM; TGI [23]: 23.6 µM; GI50 [24]: 3.75 µM; TGI [24]: 18.2 µM; GI50 [25]: 4.16 µM; TGI [25]: 51.4 µM; GI50 [26]: 2.45 µM; TGI [26]: 6.05 µM; GI50 [27]: 2.56 µM; TGI [27]: 8.19 µM; GI50 [28]: 3.31 µM; TGI [28]: 27.4 µM; GI50 [29]: 4.15 µM; TGI [29]: > 100 µM; GI50 [30]: 2.54 µM; TGI [30]: 7.74 µM; GI50 [31]: 2.39 µM; TGI [31]: 6.72 µM; GI50 [32]: 4.28 µM; TGI [32]: 15.8 µM; GI50 [33]: 2.79 µM; TGI [33]: 8.33 µM; GI50 [34]: 2.03 µM; TGI [34]: 5.13 µM; GI50 [35]: 3.09 µM; TGI [35]: 12.3 µM; GI50 [36]: 2.25 µM; TGI [36]: 5.58 µM; GI50 [37]: 2.91 µM; TGI [37]: 9.9 µM; GI50 [38]: 3.05 µM; TGI [38]: 22 µM; GI50 [39]: 2.95 µM; TGI [39]: 15.2 µM; GI50 [40]: 4.04 µM; TGI [40]: 17.9 µM; GI50 [41]: 4.36 µM; TGI [41]: 17.4 µM; GI50 [42]: 2.27 µM; TGI [42]: 6.83 µM; GI50 [43]: 2.94 µM; TGI [43]: 9.03 µM; GI50 [44]: 3.03 µM; TGI [44]: 10.7 µM; GI50 [45]: 3.1 µM; TGI [45]: 12.6 µM; GI50 [46]: 3.1 µM; TGI [46]: 5.43 µM; GI50 [47]: 3.64 µM; TGI [47]: 14.3 µM; GI50 [48]: 3.58 µM; TGI [48]: 19 µM; GI50 [49]: 4.59 µM; TGI [49]: 20.4 µM; GI50 [50]: 3.15 µM; TGI [50]: 18.8 µM; GI50 [51]: 3.55 µM; TGI [51]: 12.1 µM; GI50 [52]: 4.43 µM; TGI [52]: 57.9 µM; GI50 [53]: 2.94 µM; TGI [53]: 9.12 µM; GI50 [54]: 1.92 µM; TGI [54]: 8.83 µM; GI50 [55]: 4.03 µM; TGI [55]: 25.9 µM; GI50 [56]: 4.36 µM; TGI [56]: 43.5 µM; GI50 [57]: 3.14 µM; TGI [57]: 10.8 µM; GI50 [58]: 3.12 µM; TGI [58]: 13.7 µM
